Source: patent US20140045746A1 (Merck Sharp & Dohme Corp., priority 2012, published 2014)

What was measured:
hGPR40 [1] = biological target: T1, hGPR40 (Homo sapiens, UniProt O14842); assay: GPR40 FLIPR assay (agonist-induced calcium mobilization); format: cell-based; parameters: expressed in transfected cells; host or cells: CHO cells stably expressing NFAT BLA (beta-lactamase); settings: GPR40/CHO NFAT BLA cells;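 further: calcium mobilization in the cells read as fluorescence of fluo-4 AM loaded cells on FLIPR after compound addition, cells preloaded with dye 100 min at room temperature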
T1 sequence (O14842 whole entry): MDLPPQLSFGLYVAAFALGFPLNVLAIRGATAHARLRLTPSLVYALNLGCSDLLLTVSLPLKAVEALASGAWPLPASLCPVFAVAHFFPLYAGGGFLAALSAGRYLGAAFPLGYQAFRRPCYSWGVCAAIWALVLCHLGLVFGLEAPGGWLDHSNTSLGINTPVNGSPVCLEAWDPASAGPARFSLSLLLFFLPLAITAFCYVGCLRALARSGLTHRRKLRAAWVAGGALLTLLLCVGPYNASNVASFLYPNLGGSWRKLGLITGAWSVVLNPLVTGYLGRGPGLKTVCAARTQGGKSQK
Method: Human and mouse GPR40 stable cell-lines were generated in CHO cells stably expressing NFAT BLA (Beta-lactamase). […] The expression plasmids were transfected using lipofectamine (Life Technologies) following manufacturer's instructions. Stable cell-lines were generated following drug selection.
FLIPR (Fluorimetric Imaging Plate Reader, Molecular Devices) assays were performed to measure agonist-induced calcium mobilization of the stable clones. For the FLIPR assay, one day before assay, GPR40/CHO NFAT BLA cells were seeded into black-wall-clear-bottom 384-well plates (Costar) at 1.4×10e4 cells/20 μL medium/well. The cells were incubated with 20 μl/well of the assay buffer (HBSS, 0.1% BSA, 20 mM HEPES, 2.5 mM probenecid, pH 7.4) containing 8 μM fluo-4, AM, 0.08% pluronic acid at room temperature for 100 minutes. Fluorescence output was measured using FLIPR. Compounds were dissolved in DMSO and diluted to desired concentrations with assay buffer. 13.3 μL/well of compound solution was added.

hGPR40 [2] = biological target: T1, hGPR40; assay: GPR40 Inositol Phosphate Turnover (IP1) Assay; format: cell-based; parameters: expressed in transfected cells; host or cells: HEK cells stably expressing the aequorin reporter; settings: HEK cells stably expressing human GPR40; 0% serum; read-out: hGPR40 IP1 EC50 (0% serum)

SMILES | EC50 (hGPR40 [1]) | EC50 (hGPR40 [2])
Cc1nc(OCCC(C)(C)O)ccc1-c1ccc(F)c(COc2cc3c(cn2)[C@H]2[C@@H](C3)[C@@H]2C(=O)O)c1 [Compound 7-6, (5aR,6S,6aS)-3-((2-fluoro-5-(6-(3-hydroxy-3-methylbutoxy)-2-methylpyridin-3-yl)benzyl)oxy)-5,5a,6,6a-tetrahydrocyclopropa[4,5]cyclopenta[1,2-c]pyridine-6-carboxylic acid] | 15 nM | 7.5 nM
Cc1cc(OCC(O)CO)cc(C)c1-c1ccc(F)c(COc2cc3c(cn2)[C@H]2[C@@H](C3)[C@@H]2C(=O)O)c1 (stereo partly drawn) [Compound 14-4, (5aR,6S,6aS)-3-((4′-(2,3-dihydroxypropoxy)-4-fluoro-2′,6′-dimethyl-[1,1′-biphenyl]-3-yl)methoxy)-5,5a,6,6a-tetrahydrocyclopropa[4,5]cyclopenta[1,2-c]pyridine-6-carboxylic acid] | 32 nM | 6.2 nM
Cc1cccc(C)c1-c1cccc(COc2cc3c(cn2)C2[C@@H](C3)[C@@H]2C(=O)O)c1C (stereo partly shown) [Compound 27-5, 4-(2,2′,6′-Trimethyl-biphenyl-3-ylmethoxy)-1,1a,6,6a-tetrahydro-3-aza-cyclopropa[a]indene-1-carboxylic acid] | 8.1 nM | 6.7 nM
Cc1cc(OCCC2(O)CC2)cc(C)c1-c1ccc(F)c(COc2cc3c(cn2)[C@H]2[C@@H](C3)[C@@H]2C(=O)O)c1 [Compound 4-6] | 30 nM | 12 nM
Cc1nc(N2CCC(NS(C)(=O)=O)C2)ccc1-c1ccc(F)c(COc2cc3c(cn2)C2C(C3)C2C(=O)O)c1 (stereo not shown) [Compound 31-12, 3-((2-fluoro-5-(2-methyl-6-(3-(methylsulfonamido)-pyrrolidin-1-yl)pyridin-3-yl)benzyl)oxy)-5,5a,6,6a-tetrahydrocyclopropa[4,5]cyclopenta[1,2-c]pyridine-6-carboxylic acid] | 44 nM | 51 nM
Cc1nc(N2CCC(CS(C)(=O)=O)C2)ccc1-c1ccc(F)c(COc2cc3c(cn2)C2C(C3)C2C(=O)O)c1 (stereo not shown) [Compound 31-9, 3-((2-fluoro-5-(2-methyl-6-(3-((methylsulfonyl)-methyl)pyrrolidin-1-yl)pyridin-3-yl)benzyl)oxy)-5,5a,6,6a-tetrahydrocyclopropa[4,5]cyclopenta[1,2-c]pyridine-6-carboxylic acid] | 76 nM | 69 nM
CS(=O)(=O)CCCOc1ccc(-c2ccc(F)c(COc3cc4c(cn3)[C@H]3[C@@H](C4)[C@@H]3C(=O)O)n2)c(C(F)(F)F)c1 [Compound 26-9, (5aR,6S,6aS)-3-((3-fluoro-6-(4-(3-(methyl-sulfonyl)-propoxy)-2-(trifluoromethyl)-phenyl)pyridin-2-yl)methoxy)-5,5a,6,6a-tetrahydrocyclo-propa[4,5]cyclopenta [1,2-c]pyridine-6-carboxylic acid] | 70 nM | 53 nM
CS(=O)(=O)CCCOc1ccc(OC(F)(F)F)c(-c2ccc(F)c(COc3cc4c(cn3)[C@H]3[C@@H](C4)[C@@H]3C(=O)O)c2)c1 [Compound 10-11, (5aR,6S,6aS)-3-((4-f1uoro-5′-(3-(methylsulfonyl)-propoxy)-2′-(trifluoro-methoxy)-[1,1′-biphenyl]-3-yl)methoxy)-5,5a,6,6a-tetrahydrocyclo-propa[4,5] cyclopenta[1,2-c] pyridine-6-carboxylic acid] | 34 nM | 280 nM
CS(=O)(=O)CCCOc1ccc(-c2ccc(F)c(COc3cc4c(cn3)[C@H]3[C@@H](C4)[C@@H]3C(=O)O)c2)c(C(F)(F)F)c1 [Compound 10-10, (5aR,6S,6aS)-3-((4-fluoro-4′-(3-(methylsulfonyl)-propoxy)-2′-(trifluoro-methyl)-[1,1′-biphenyl]-3-yl)methoxy)-5,5a,6,6a-tetrahydrocyclo-propa[4,5] cyclopenta[1,2-c] pyridine-6-carboxylic acid] | 19 nM | 3.8 nM
Cc1nc(OCCC(C)(C)O)ccc1-c1cccc(COc2cc3c(cn2)[C@H]2[C@@H](C3)[C@@H]2C(=O)O)c1 [Compound 7-4, (5aR,6S,6aS)-3-((3-(6-(3-hydroxy-3-methylbutoxy)-2-methylpyridin-3-yl)benzyl)oxy)-5,5a,6,6a-tetrahydrocyclopropa[4,5]cyclopenta[1,2-c]pyridine-6-carboxylic acid] | 42 nM | 28 nM
Cc1cc(CCCC(C)(C)O)cc(C)c1-c1ccc(F)c(COc2cc3c(cn2)[C@H]2[C@@H](C3)[C@@H]2C(=O)O)c1 [Compound 19-19, (5aR,6S,6aS)-3-((4-fluoro-4′-(4-hydroxy-4-methylpentyl)-2′,6′-dimethyl-[1,1′-biphenyl]-3-yl)methoxy)-5,5a,6,6a-tetrahydrocyclopropa[4,5]cyclopenta[1,2-c]pyridine-6-carboxylic acid] | 36 nM | 5.5 nM
O=C(O)[C@H]1[C@@H]2Cc3cc(OCc4cccc(-c5ccc(OCCC6(O)CC6)cc5C(F)(F)F)c4)ncc3[C@@H]21 [Compound 8-6] | 41 nM | 22 nM
Cc1cc(CCC(C)(C)O)cc(C)c1-c1ccc(F)c(COc2cc3c(cn2)[C@H]2[C@@H](C3)[C@@H]2C(=O)O)c1 [Compound 19-6, (5aR,6S,6aS)-3-((4-fluoro-4′-(3-hydroxy-3-methylbutyl)-2′,6′-dimethyl-[1,1′-biphenyl]-3-yl)methoxy)-5,5a,6,6a-tetrahydrocyclopropa[4,5]cyclopenta[1,2-c]pyridine-6-carboxylic acid] | 20 nM | 4 nM
Cc1cc(OCCC2CC(F)(F)C2)cc(C)c1-c1ccc(F)c(COc2cc3c(cn2)[C@H]2[C@@H](C3)[C@@H]2C(=O)O)c1 [Compound 16-9, (5aR,6S,6aS)-3-((4′-(2-(3,3-difluorocyclobutyl)ethoxy)-4-fluoro-2′,6′-dimethyl-[1,1′-biphenyl]-3-yl)methoxy)-5,5a,6,6a-tetrahydro-cyclopropa[4,5] cyclopenta[1,2-c] pyridine-6-carboxylic acid] | 19 nM | 45 nM
O=C(O)C1C2Cc3cc(OCc4cc(-c5ccc(C(F)(F)F)cc5)ccc4F)ncc3C21 (stereo not shown) [Compound 22-4, 3-((4-fluoro-4′-(trifluoromethyl)-[1,1′-biphenyl]-3-yl)methoxy)-5,5a,6,6a-tetrahydrocyclo-propa[4,5]cyclopenta[1,2-c]pyridine-6-carboxylic acid] | 54 nM | 240 nM
CC(C)(O)CCOc1ccc(-c2ccc(F)c(COc3cc4c(cn3)[C@H]3[C@@H](C4)[C@@H]3C(=O)O)c2)c(C(F)(F)F)c1 [Compound 5-5, (5aR,6S,6aS)-3-((4-fluoro-4′-(3-hydroxy-3-methylbutoxy)-2′-(trifluoromethyl)-[1,1′-biphenyl]-3-yl)-methoxy)-5,5a,6,6a-tetrahydrocyclopropa[4,5]cyclopenta[1,2-c]pyridine-6-carboxylic acid] | 15 nM | 10 nM
COc1cc(-c2cc(COc3cc4c(cn3)[C@H]3[C@@H](C4)[C@@H]3C(=O)O)ccc2C)ccn1 [Compound 12-7, (5aR,6S,6aS)-3-((3-(2-methoxypyridin-4-yl)-4-methylbenzyl)oxy)-5,5a,6,6a-tetrahydrocyclopropa[4,5]cyclopenta[1,2-c]pyridine-6-carboxylic acid] | 17 nM | 50 nM
Cc1nc(N2CCN(S(C)(=O)=O)CC2)ccc1-c1ccc(F)c(COc2cc3c(cn2)[C@H]2[C@@H](C3)[C@@H]2C(=O)O)c1 [Compound 31-13, (5aR,6S,6aS)-3-((2-fluoro-5-(2-methyl-6-(4-(methylsulfonyl)piperazin-1-yl)pyridin-3-yl)benzyl)oxy)-5,5a,6,6a-tetrahydrocyclopropa[4,5]cyclopenta[1,2-c]pyridine-6-carboxylic acid] | 69 nM | 32 nM
CC(C)(O)CCCOc1cc(C(F)(F)F)c(-c2cccc(COc3cc4c(cn3)[C@H]3[C@@H](C4)[C@@H]3C(=O)O)c2)cn1 [Compound 21-8, (5aR,6S,6aS)-3-((3-(6-((4-hydroxy-4-methylpentyl)-oxy)-4-(trifluoromethyl)-pyridin-3-yl)benzyl)oxy)-5,5a,6,6a-tetrahydrocyclo-propa[4,5]cyclopenta [1,2-c]pyridine-6-carboxylic acid] | 15 nM | 6.2 nM
Cc1nc(OCCC(C)(C)O)ccc1-c1ccc(F)c(COc2cc3c(cn2)C2C(C3)C2C(=O)O)c1 (stereo not shown) [Compound 7-5, 3-((2-fluoro-5-(6-(3-hydroxy-3-methylbutoxy)-2-methylpyridin-3-yl)benzyl)oxy)-5,5a,6,6a-tetrahydrocyclopropa[4,5]cyclopenta[1,2-c]pyridine-6-carboxylic acid] | 65 nM | 21 nM
Cc1nc(OCCCS(C)(=O)=O)sc1-c1ccc(F)c(COc2cc3c(cn2)C2C(C3)C2C(=O)O)c1 (stereo not shown) [Compound 23-14, 3-((2-fluoro-5-(4-methyl-2-(3-(methylsulfonyl)-propoxy)thiazol-5-yl)-benzyl)oxy)-5,5a,6,6a-tetrahydrocyclopropa [4,5]cyclopenta[1,2-c] pyridine-6-carboxylic acid] | 18 nM | 34 nM
Cc1cc(OCCC2(O)CC2)cc(C)c1-c1cccc(COc2cc3c(cn2)[C@H]2[C@@H](C3)[C@@H]2C(=O)O)c1 [Compound 4-5, (5aR,6S,6aS)-3-((4′-(2-(1-hydroxycyclopropyl)ethoxy)-2′,6′-dimethyl-[1,1′-biphenyl]-3-yl)methoxy)-5,5a,6,6a-tetrahydrocyclopropa[4,5]cyclopenta[1,2-c]pyridine-6-carboxylic acid] | 27 nM | 8.6 nM
CO/N=C(\C)CCCOc1cc(C)c(-c2cccc(COc3cc4c(cn3)[C@H]3[C@@H](C4)[C@@H]3C(=O)O)c2)c(C)c1 [Compound 17-5, (5aR,6S,6aS)-3-((4′-(((E)-4-(methoxyimino)pentyl)oxy)-2′,6′-dimethyl-[1,1′-biphenyl]-3-yl)methoxy)-5,5a,6,6a-tetrahydrocyclopropa[4,5]cyclopenta[1,2-c]pyridine-6-carboxylic acid] | 13 nM | 98 nM
